The text below walks through data of US12564631B2, “Phytosphingosine derivatives as adjuvants in immune stimulation” (Helmholtz-Zentrum für Infektionsforschung GmbH, priority 2020, dated 2026).

The structures appear in SMILES notation. “Also recorded” adds a separate entry of the source.

The subject of data set [1] is Th1-type / Th2-type response. The note with it: literature cited in background; cited from earlier work.
The subject of another data set is CD4+ T cells. Kind of data set: CFSE proliferation assay of CD4+ T cells after interaction with Ova/adjuvant-matured bone marrow derived DCs (APC). Format: cell-based, mice. The note with it: for stimulating effect of CD4+ T cells versus controls with only antigen Ova: CFSE loss up to 7 days, DCs activated with Ova + 10 μg compound, FIG. 4A/4B; for capacity to induce antigen specific CD4+ T cell proliferation: DCs restimulated with Ovalbumin + 10 μg compound for 24 h, interaction with APC for 5 days. The text has this: FIG. 3B: Cell proliferation tracked by CFSE dilution of CD4+ T cells after interaction with matured Antigen Presenting Cells (APC). With every cell division, the CFSE signal strength is approximately halved. The shown cell numbers indicate the ratio of proliferated live CD4+ T cells.
(§1) FIG. 4: Effect after treatment with IPB 0964-1917—Cell proliferation tracked by CFSE loss of T cells after interaction with matured Antigen Presenting Cells (APC). With every cell division, the CFSE signal strength is reduced. The shown cell numbers indicate the ratio of proliferating T and B cells (7 steps are shown). (A) Numbers of CD4+ T cells are shown at different proliferation steps up to 7 days measuring the loss of CFSE. Naïve cells were treated with one of IPB1901-1912 together with DCs activated with Ova prior to the CFSE assay. (B) Numbers of CD4+ T cells are shown at different proliferation steps up to 7 days measuring the loss of CFSE. Naïve cells were treated with one of IPB2033-2044 together with DCs activated with Ova prior to the CFSE assay. (C) Numbers of CD8+ T cells are shown at different proliferation steps up to 7 days measuring the loss of CFSE. Naïve cells were treated with one of IPB1901-1912 together with DCs activated with Ova prior to the CFSE assay. (D) Numbers of CD8+ T cells are shown at different proliferation steps up to 7 days measuring the loss of CFSE. Naïve cells were treated with one of IPB2033-2044 together with DCs activated with Ova prior to the CFSE assay.
(§2) In order to assess the properties of the inventive compounds in antigen-specific T and B cell stimulation, the compounds were administered to cultured bone marrow cells in a CFSE assay.
(§3) Briefly, femurs and Tibiae of female 4-12 weeks old C57Bl6 (or BALB/c for TCR HA) were removed and purified from the surrounding muscle tissue (Kleenex tissues). Intact Bones were left in 70% ethanol for 2-5 min for disinfection. Both ends were cut with scissors and the bone marrow were flushed with PBS using a syringe with a 0.45 mm diameter needle, clusters were disintegrated by vigorous pipetting.
(§4) In order to obtain activated antigen presenting dendritic cells (DCs), bone marrow cells were cultured with GM-CSF. On Day 0, cells were seeded in a concentration of 2×10^6 cells per 100 mm dish (bacteriological petri dishes) in 10 ml RPMI-10 (100 U Pen/100 μg Strept/2 mM Glutamin/50 μm ß-Mercaptoethanol/10% FCS heat-inactivated and filtered 0.22 μm Filter) containing 200 Units GM-CSF. On Day 3 another 10 ml RPMI-10 containing 200 U GM-CSF were added to the plates. On Day 6 half of the culture supernatants (10 ml) were collected, centrifuged and the cell pellet resuspended in 10 ml fresh RPMI-10/200 U GM-CSF and given back into the original plates.
(§5) Subsequently, the DCs were incubated with Ovalbumin (as antigen) alone or co-administered with known adjuvants, such as α-GalCerMPEG, aßGalCerMPEG or TLR2/6 ligand (BPPcysMPEG), or the novel phytosphingosine derivatives of the present invention. The activation of DCs was controlled by FACS analysis of different CD markers, such as CD40, CD54, CD80, CD86, CD83, MHCI and MHCII.
(§6) The effect of the compounds of the present invention was then ascertained via co-incubation of naïve T or B cells, obtained from mice (OTI or OTII mice) with previous exposure to the Ova antigen, with DCs that had been treated with the compounds of the invention.
(§7) Naïve T cells were derived from LN/spleen from OTI or OTII mice. The MagniSort™ Mouse CD4 naïve or CD8 naïve T cell Enrichment Kit is designed for the magnetic separation of CD4 or CD8 naïve T cells by negative selection from mouse spleens or lymph nodes utilizing a biotinylated antibody cocktail and streptavidin-coated magnetic beads. Undesired cells are bound by antibody (Anti-Mouse CD8 or CD4/CD11b CD19/CD24/CD44/CD45R(B220)/CD49b(Integrin α 2)/Ly-6G (Gr-1)/γδ TCR/TER-119) and then magnetic beads that, when placed in a magnetic field, leave CD4 or CD8 naïve T cells untouched and free in solution. […]

A further data set has as its system CD19+ B cells. Kind of data set: CFSE proliferation assay of CD19+ B cells after interaction with Ova/adjuvant-matured bone marrow derived DCs (APC). The conditions noted are these: FIG. 3A; for toxicity against B cells: effect not comparable to adjuvant controls. Format: cell-based, mice. On the procedure: FIG. 3A: Cell proliferation tracked by CFSE dilution of B cells after interaction with matured Antigen Presenting Cells (APC). With every cell division, the CFSE signal strength is approximately halved. The observed cell numbers indicate the ratio of proliferating viable CD19+ B cells.
as §2, §3, §4, §5, §6
CFSE staining of the CD4+ or CD8+ naïve T cells is then carried out according to standard procedures. Subsequently, 2-5×10^4 DCs (as mature antigen presenting cells APCs) are incubated with 4×10^5 CFSE+ T cells (OTI or OTII) per well (ratio DC/T cells is […]). A CFSE proliferation assay is then conducted, using on Day +5 or on Day +7 a FACS analysis (CFSE/LD/CD4/CD8/CD19/Thy1.1), providing a cell count for the desired cell type based on CFSE. With every cell division, the CFSE signal strength is approximately halved. The cells marked with CFSE can therefore be used to determine the proliferation of CD19+ B cells, CD4+ or CD8+ T cells in response to treatment with activated DCs, that were treated with or without the compounds of the invention.
As is shown in FIG. 3A, cell proliferation of B cells is tracked by CFSE dilution after interaction with APCs. With every cell division, the CFSE signal strength is approximately halved. Therefore, the compounds of the invention show an effect on inducing antigen specific CD19+ cell proliferation.
On day −1, mature DCs were restimulated with Ovalbumin (antigen) co-administered with 10 μg of the different novel phytosphingosine derivatives (0964-1917) or with positive controls (α-GalCerMPEG, aßGalCerMPEG, CDA or BPPcysPEGdef) for 24 h.

A further data set deals with CD8+ T cells. Kind of data set: CFSE proliferation assay of CD8+ T cells after interaction with Ova/adjuvant-matured bone marrow derived DCs (APC). The conditions noted are these: for stimulating effect of CD8+ T cells versus controls with only antigen Ova: CFSE loss up to 7 days, DCs activated with Ova + 10 μg compound, FIG. 4C/4D. Type of data set: cell-based, mice.
Source text: FIG. 3C: Cell proliferation tracked by CFSE dilution of CD8+ T cells after interaction with matured Antigen Presenting Cells (APC). With every cell division, the CFSE signal strength is approximately halved. The shown cell numbers indicate the ratio of proliferated live CD8+ T cells
as §1, §2, §3, §4, §5, §6, §7

The next data set relates to splenocytes. Kind of data set: Unspecific proliferation assay of splenocytes ([3H]thymidine incorporation). Type of data set: cell-based, mice. The conditions noted are these: for Stimulation index (SI): splenocytes restimulated 96 h with 1, 10 and 20 μg/ml compound, ratio of [3H]-thymidine uptake of stimulated versus non-stimulated samples, FIG. 2E/2F; for induction of unspecific proliferation in splenocytes: summary statement. On the procedure:
FIG. 2: Analysis of unspecific proliferative responses of murine cells stimulated without or with enhanced concentrations of the Phytosphingosine-compounds. Splenocytes from mice were re-stimulated for 96 h with different concentrations of adjuvant (1, 10 and 20 μg/ml). The results are presented by are expressed (A-C) as counts per minute (cpm) and (D-F) stimulation index (SI) being the ratio of [^3H]-thymidine uptake of stimulated versus non-stimulated samples. (A) and (D) show data for α-GalCer controls, (B) and (E) show data for IPB1901-1910, and (C) and (F) show data for IPB1911-1917.
In order to assess the properties of the inventive compounds in antigen-unspecific immune response stimulation the compounds were administered to splenocytes in an established proliferation assay.
For the proliferation assay, splenocytes (5×10^6 cells/ml) are seeded at 100 μl per well in a U-bottomed 96-well microtiter plate (Sarstedt Inc., Newton, N.C.) and cultured in quadruplicates 4 days in the presence of enhanced concentrations of adjuvant (1, 10 and 20 μg/ml)), 5 μg/ml of Concanavalin A (max); or medium alone. Eighteen hours before harvesting, 1 μCi of [3H]thymidine (Amersham International, Freiburg, Germany) is added to each well. Cells are harvested on paper filters (Filtermat A; Wallac, Freiburg, Germany) using a cell harvester (Inotech, Wohlen, Switzerland) and the incorporation of [3H] thymidine into the DNA of proliferating cells is determined using a scintillation counter (Wallac 1450, Micro-Trilux).
Background: Dividing cells build labelled thymidine or BrdU into new DNA.

On to `CCCCCCCCCCCCCCCCCCCCCCCC(=O)N[C@@H](CO[C@H]1O[C@H](CO)[C@H](O)[C@H](O)[C@H]1O)[C@H](O)[C@H](O)CCCCC` [OCH], for which the “type of response elicited (Th1 / Th2)” value in data set [1] is reported as “elicit a Th2-type response”.

As to `CCCCCCCCCCCCCC[C@@H](O)[C@@H](O)[C@H](CO[C@H]1OC(CO)[C@H](O)C(O)C1O)N(CC(=O)NCCCCCCCCCCCC)C(=O)CCCCCCCCCCCCC` (stereo partly drawn) [IPB 1901], the “stimulating effect of CD4+ T cells versus controls with only antigen Ova” value in the data set with CD4+ T cells is given as “stimulating effect of CD4+ T cells beyond controls”. Also, the “toxicity against B cells” value with CD19+ B cells is given as “may show some toxicity against B cells”. Also, in the data set on CD8+ T cells, the “stimulating effect of CD8+ T cells versus controls with only antigen Ova” value is recorded as “stimulating effect of CD8+ T cells beyond controls”. Besides, in the data set on splenocytes, the “Stimulation index (SI)” value was found to be 4 and the “induction of unspecific proliferation in splenocytes” value (shortened to “induction”) is listed as “beneficial induction of unspecific proliferation”.

For `CCCCCCCCCCCCCC[C@@H](O)[C@@H](O)[C@H](CO[C@H]1OC(CO)[C@H](O)C(O)C1O)N(CC(=O)NC1CCCCC1)C(=O)CCCCCCCCCCC` (stereo partly drawn) [IPB 1903], the “stimulating effect of CD4+ T cells versus controls with only antigen Ova” value in the data set with CD4+ T cells is listed as “stimulating effect of CD4+ T cells beyond controls”. For the same compound, in the data set with CD4+ T cells (FIG. 3B), the “capacity to induce antigen specific CD4+ T cell proliferation” value is “high capacity; also recorded: beneficial capacity”. Besides, the “toxicity against B cells” value with CD19+ B cells is listed as “may show some toxicity against B cells”. The “stimulating effect of CD8+ T cells versus controls with only antigen Ova” value in the data set on CD8+ T cells is on record as “stimulating effect of CD8+ T cells beyond controls”. In the data set with splenocytes, the “Stimulation index (SI)” value is above 10 and the “induction” value is listed as “beneficial induction of unspecific proliferation”.

Consider `CCCCCCCCCCCCCC[C@@H](O)[C@@H](O)[C@H](CO[C@H]1O[C@H](CO)[C@H](O)[C@H](O)[C@H]1O)NC(=O)CCCCCCCCCCc1ccc(F)cc1` [7DW8-5], for which the “type of response elicited (Th1 / Th2)” value in data set [1] is given as “elicit a Th1 response”.

With `CCCCCCCCCCCCCCCCCC(=O)N(CC(=O)NCCC(=O)OC(C)(C)C)[C@@H](CO[C@H]1OC(CO)[C@H](O)C(O)C1O)[C@H](O)[C@H](O)CCCCCCCCCCCCCC` (stereo partly drawn) [IPB 1909], the “capacity to induce antigen specific CD4+ T cell proliferation” value in the data set with CD4+ T cells (FIG. 3B) is “high capacity; also recorded: beneficial capacity”. Besides, in the data set on CD19+ B cells (DCs restimulated with Ovalbumin + 10 μg compound for 24 h, interaction with APC for 5 days), the “capacity to induce antigen specific CD19+ B cell proliferation” value is “particularly high capacity; also recorded: beneficial capacity”. In the data set on CD8+ T cells (DCs restimulated with Ovalbumin + 10 μg compound for 24 h, interaction with APC for 5 days, FIG. 3C), the “effect to induce antigen specific CD8+ T cell proliferation” value is on record as “strong effect; also recorded: beneficial effect”.

`CCCCCCCCCCCCCC[C@@H](O)[C@@H](O)[C@H](CO[C@H]1OC(CO)[C@H](O)C(O)C1O)N(CC(=O)NCc1ccccc1)C(=O)CCCCCCC` (stereo partly drawn) [IPB 1902]: the “stimulating effect of CD4+ T cells versus controls with only antigen Ova” value with CD4+ T cells was “stimulating effect of CD4+ T cells beyond controls”. Further, the “toxicity against CD4+ T cells” value with CD4+ T cells (FIG. 3B, no improved effect over adjuvant controls) was “may show some toxicity against CD4+ T cells”. The “toxicity against B cells” value in the data set on CD19+ B cells is listed as “may show some toxicity against B cells”. In addition, the “stimulating effect of CD8+ T cells versus controls with only antigen Ova” value with CD8+ T cells was “stimulating effect of CD8+ T cells beyond controls”. Moreover, in the data set on splenocytes, the “induction” value is given as “beneficial induction of unspecific proliferation”.
